This note sets out measurements from BindingDB's records for doi:10.7270/Q2M0441T (Dalhousie University, 1989).

SMILES strings stand for the structures. Bounds are passed on as bounds.

What is called IC50 is the point on the concentration scale where inhibition reaches its midpoint. A lower IC50 goes with inhibition by little substance.

The experiment has as its target T1, Phosphatidylcholine-sterol acyltransferase (Homo sapiens, UniProt P04180).
T1 sequence (P04180 whole entry): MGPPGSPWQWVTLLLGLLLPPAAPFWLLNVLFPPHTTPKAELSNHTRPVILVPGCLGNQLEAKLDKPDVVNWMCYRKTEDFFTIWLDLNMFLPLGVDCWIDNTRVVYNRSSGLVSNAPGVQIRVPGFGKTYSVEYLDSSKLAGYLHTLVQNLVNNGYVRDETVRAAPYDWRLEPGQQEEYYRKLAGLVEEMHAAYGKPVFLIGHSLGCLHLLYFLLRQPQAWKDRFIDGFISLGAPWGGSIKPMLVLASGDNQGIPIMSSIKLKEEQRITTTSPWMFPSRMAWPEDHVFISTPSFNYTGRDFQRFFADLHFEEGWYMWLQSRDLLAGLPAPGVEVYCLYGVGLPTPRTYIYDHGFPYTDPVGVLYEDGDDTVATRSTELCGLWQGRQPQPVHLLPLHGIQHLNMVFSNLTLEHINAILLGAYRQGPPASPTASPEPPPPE
Nature of the experiment: Enzyme Assay. To be noted: pH 7.5; 4 °C. On the procedure:
The phospholipase A2 activity of LCAT was assayed using lecithin and apoA-I containing [9,10-3H] dipalmitoylphosphatidylcholine (DPPC) and measurement of the radioactive fatty acid released from the sn-2-position.

`CCCCCCCC(=O)OCC(COP(=O)([O-])OCC[N+](C)(C)C)CC(=O)C(F)(F)CCCCCC` (centres undefined) [Difluoroketone phospholipid analogue, 4]: the IC50 came out at 0.06 µM.
Under `CCCCCCCC(=O)C(F)(F)CCOP(=O)([O-])OCC[N+](C)(C)C` [Difluoroketone phospholipid analogue, 1] stands above 0.5 µM; under `CCCCCCCCCCCCCCCCC(=O)C(F)(F)C(COCCCCCCCC)COP(=O)([O-])OCC[N+](C)(C)C` (centres undefined) [Difluoroketone phospholipid analogue, 3], 0.028 µM.
Consider `CCCCCCCCOCC(COP(=O)([O-])OCC[N+](C)(C)C)C(F)(F)C(=O)CCCCCCC` (centres undefined) [Difluoroketone phospholipid analogue, 2], for which the IC50 is 0.06 µM.
